Experimental data taken from PMC11161644, “An effective and rapidly degradable disinfectant from disinfection byproducts” (Nature Communications, 2024).
Where “and” joins values, the source holds several entries; their conditions need not be identical. Equal values may be shown once. Read-outs that look alike come from different tables or passages of the source.

Key:
E. coli (ATCC 25922) = experiment: Inactivation of E. coli by disinfectants (membrane filter enumeration, contact time 5 min); assay type: cell-based, Escherichia coli; settings: for log reduction at 1500 µg/mL / EC (3-log inactivation) / log reduction at 115 µg/mL / log reduction at 475 µg/mL: Escherichia coli, ATCC25922, 5 min; for log reduction at 1500 µg/mL: dose 1500 mg L-1; for log reduction at 1500 µg/mL / log reduction at 115 µg/mL / log reduction at 475 µg/mL: 5 min; for log reduction at 1500 µg/mL / log reduction at 115 µg/mL: read-out: Log (N/N0); for log reduction at 115 µg/mL: dose 115 mg L-1; for log reduction at 475 µg/mL: dose 475 mg L-1
In short: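 E. coli ATCC 25922 (10^6‒10^7 cells/mL) exposed to a series of DBP doses in 10 mM PBS (pH 7.2; pH effect tested at 6.2, 7.2, 8.2) for 5 min at 22 ± 1 °C. Survivors enumerated by membrane filtration on m-FC medium at 45 °C for 24 h; inactivation relative to undisinfected control.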

S. aureus (ATCC 25923) = experiment: Inactivation of S. aureus (contact time 5 min); assay type: cell-based, Staphylococcus aureus; settings: Staphylococcus aureus, ATCC25923, 5 min, dose 300 mg L-1, pH 7.2, contact time 5 min
Procedure: The chemicals and reagents used are detailed in Supplementary Note 1. The bacteria E. coli (ATCC 25922) and S. aureus (ATCC 25923) were cultured aerobically in Luria-Bertani broth (Sigma-Aldrich) and Tryptone Soya broth (Oxoid), respectively, at 37 °C for 16 h. The fungus C. albicans (ATCC 14053) was aerobically cultured in Sabouraud Dextrose broth (Difco) at 37 °C for 24 h. The microorganism cells were harvested by centrifugation at 1200×g (10 min, 4 °C) and resuspended in phosphate-buffered saline (PBS, 10 mM, pH 7.2). The disinfection experiments were performed in PBS solutions (10 mM, pH 7.2) with an initial concentration of E. coli, S. aureus, or C. albicans of 10^6‒10^7 cells per milliliter. A contact time of 5 min was used in accordance with the recommended time range of 0.25–10 min by USEPA for surface disinfection. Preliminary tests were conducted to determine the appropriate range of DBP doses. The appropriate dose range was established when the lowest and highest doses could achieve <1-log and >3-log of microbial inactivation, respectively. Based on the preliminary results, a series of doses of DBPs were added to the cell suspensions at room temperature (22 ± 1 °C). After the contact time of 5 min, the microorganism cells were enumerated following a membrane filter method. Briefly, serial 10-fold dilutions were conducted for the disinfected samples and the control sample without disinfection. Each diluted suspension was subjected to filtration through 0.45-μm membrane, which was then placed on a petri dish. The Petri dishes containing E. coli, S. aureus, and C. albicans were incubated in m-FC medium (Becton Dickinson & Co) at 45 °C for 24 h, in Tryptone Soya broth at 37 °C for 24 h and in Sabouraud Dextrose broth at 37 °C for 24 h, respectively. After incubation, the colony-forming units within a statistically reasonable range (20–80) were counted.

[1] = Degradation in seawater in darkness (pH 6.2, 7.2, 8.2); settings: for Ln (C/C0): seawater pH 8.2, darkness
Procedure: To study the DBP degradation in seawater in darkness, a DBP was added at 10 mg L^−1 to 50 mL pretreated seawater (pH 8.2) in the quartz flasks. The flasks were wrapped with aluminum foil to simulate the dark condition. The samples were kept at 20 °C in darkness for 0‒120 h, during which the sample was adjusted to pH 6.2 and 7.2 or maintained at pH 8.2 by adding 4 mM phosphate buffer (pH 6.2, 7.2, and 8.2, respectively).
For the DBP samples with and without sunlight, aliquots were taken at a specific reaction time. The sample aliquots were analyzed using Agilent high-performance liquid chromatography (HPLC) equipped with a Poroshell 120 EC-C18 column (4.6 × 150 mm, 4 µm particle size, Agilent) and a UV detector. The mobile phase, consisting of water (pre-adjusted to pH 2 with phosphoric acid) and acetonitrile at 50/50 (v/v), was applied at a flow rate of 1.0 mL min^−1. PCMX, 2,4-dihalophenols and 5-halosalicylic acids were detected at the wavelength of 230 nm. 2,5-Dihalohydroquinones and 2,6-DCQ were detected at the wavelength of 280 nm. All the degradation experiments were conducted in duplicate.

P. dumerilii embryos = experiment: Developmental toxicity assay with P. dumerilii embryos, dilution factor of in-use concentration (EC50,DF), also after degradation in darkness; assay type: in vivo, Platynereis dumerilii
Description: The DBP doses for 3-log E. coli reduction (pH 7.2) were set as the in-use concentrations, which were serially diluted and added to the P. dumerilii embryos at 12-h postfertilization. A dilution factor was defined as the ratio of the in-use concentration to the exposure concentration. Each exposure set contained a control sample (i.e., the embryos at 12-h postfertilization developed in seawater without the addition of DBPs). By 24-h postfertilization, normally developed embryos should have reached the first larval stage. An inverted stereomicroscope (×40 magnification) was used to observe the larvae. The normal development percentage was calculated as the ratio of normally developed embryos to total embryos. By plotting the curve of the normal development percentage versus the dilution factor, the EC50,DF value (i.e., the dilution factor corresponding to 50% of the normal development percentage of the control sample) was obtained using SigmaPlot 12. The developmental toxicity test was conducted in duplicate.

[2] = pH 7.2, contact time 5 min, read-out: Dose for achieving 3-log inactivation of E. coli
[3] = pH 7.2, S. aureus, read-out: Log (N/N0)

Oc1cc(Br)c(O)cc1Br [2,5-DBHQ, 2,5-dibromohydroquinone]
log reduction at 1500 µg/mL (E. coli (ATCC 25922); pH 6.2, E. coli, pH 6.2): 1.35 | log reduction at 1500 µg/mL (E. coli (ATCC 25922); pH 7.2, E. coli, pH 7.2): 3.28 | log reduction at 1500 µg/mL (E. coli (ATCC 25922); pH 8.2, E. coli, pH 8.2): 3.84 | EC (3-log inactivation) (E. coli (ATCC 25922); [2]): 1450 µg/mL | E. coli inactivation rate constant k (E. coli (ATCC 25922); pH 7.2, contact time 5 min): 0.03 L mg‒1 h‒1 | log reduction at 300 µg/mL (S. aureus (ATCC 25923); [3]): 0.62 | Relative concentration remaining (1 at 0 min) ([1]; pH 6.2, degradation time 0 min): 1 | Relative concentration remaining (1 at 0 min) ([1]; pH 6.2, degradation time 15 min): 0.9903 and 1.013 | Relative concentration remaining (1 at 0 min) ([1]; pH 6.2, degradation time 30 min): 1.0399 and 0.9876 | Relative concentration remaining (1 at 0 min) ([1]; pH 6.2, degradation time 60 min): 1.018 and 0.9782 | Relative concentration remaining (1 at 0 min) ([1]; pH 6.2, degradation time 90 min): 1.002 and 0.9911 | Relative concentration remaining (1 at 0 min) ([1]; pH 6.2, degradation time 120 min): 0.974 and 0.967 | Relative concentration remaining (1 at 0 min) ([1]; pH 6.2, degradation time 180 min): 0.9787 and 0.9462 | Relative concentration remaining (1 at 0 min) ([1]; pH 6.2, degradation time 240 min): 0.9527 and 0.9358 | Relative concentration remaining (1 at 0 min) ([1]; pH 7.2, degradation time 0 min): 1 | Relative concentration remaining (1 at 0 min) ([1]; pH 7.2, degradation time 15 min): 1.006 and 0.9535 | Relative concentration remaining (1 at 0 min) ([1]; pH 7.2, degradation time 30 min): 0.9742 and 0.9233 | Relative concentration remaining (1 at 0 min) ([1]; pH 7.2, degradation time 45 min): 0.8634 and 0.8365 | Relative concentration remaining (1 at 0 min) ([1]; pH 7.2, degradation time 60 min): 0.7743 and 0.7531 | Relative concentration remaining (1 at 0 min) ([1]; pH 7.2, degradation time 90 min): 0.6443 and 0.5863 | Relative concentration remaining (1 at 0 min) ([1]; pH 7.2, degradation time 120 min): 0.5356 and 0.4974 | Relative concentration remaining (1 at 0 min) ([1]; pH 7.2, degradation time 180 min): 0.3959 and 0.345 | Relative concentration remaining (1 at 0 min) ([1]; pH 8.2, degradation time 0 min): 1 | Relative concentration remaining (1 at 0 min) ([1]; pH 8.2, degradation time 3 min): 0.7301 and 0.7188 | Relative concentration remaining (1 at 0 min) ([1]; pH 8.2, degradation time 8 min): 0.5509 and 0.4986 | Relative concentration remaining (1 at 0 min) ([1]; pH 8.2, degradation time 12 min): 0.3915 and 0.3688 | Relative concentration remaining (1 at 0 min) ([1]; pH 8.2, degradation time 16 min): 0.2832 and 0.2676 | Relative concentration remaining (1 at 0 min) ([1]; pH 8.2, degradation time 20 min): 0.2193 and 0.1797 | Relative concentration remaining (1 at 0 min) ([1]; pH 8.2, degradation time 25 min): 0.1418 and 0.1248 | half-life at 10 mg L−1 ([1]; pretreated seawater in darkness, pH 8.2): 9 min | Ln (C/C0) ([1]; 0 min): 0 | Normal development (%) (P. dumerilii embryos; dilution factor 366.306): 0% | Normal development (%) (P. dumerilii embryos; dilution factor 439.567): 8.76% and 2.206% | Normal development (%) (P. dumerilii embryos; dilution factor 549.459): 13.3508% and 11.7022% | Normal development (%) (P. dumerilii embryos; dilution factor 732.612): 55.6452% and 53.271% | Normal development (%) (P. dumerilii embryos; dilution factor 1098.92): 74.7747% and 73.7705% | Normal development (%) (P. dumerilii embryos; dilution factor 2197.84): 91.7072% and 82.9908%

Oc1ccc(I)cc1I [2,4-DIPh, 2,4-diiodophenol]
log reduction at 115 µg/mL (E. coli (ATCC 25922); pH 6.2, E. coli, pH 6.2): 3.33 | log reduction at 115 µg/mL (E. coli (ATCC 25922); pH 7.2, E. coli, pH 7.2): 2.77 | log reduction at 115 µg/mL (E. coli (ATCC 25922); pH 8.2, E. coli, pH 8.2): 3.02 | EC (3-log inactivation) (E. coli (ATCC 25922); [2]): 112 µg/mL | E. coli inactivation rate constant k (E. coli (ATCC 25922); pH 7.2, contact time 5 min): 0.79 L mg‒1 h‒1 | log reduction at 300 µg/mL (S. aureus (ATCC 25923); [3]): 4.49 | Ln (C/C0) ([1]; 0 h): 0 | Ln (C/C0) ([1]; 24 h): 0.00447 and 0.004669 | Ln (C/C0) ([1]; 48 h): 0.01674 and 0.0143 | Normal development (%) (P. dumerilii embryos; dilution factor 14.7221): 3.475% and 5.221% | Normal development (%) (P. dumerilii embryos; dilution factor 16.1943): 15.5532% and 11.251% | Normal development (%) (P. dumerilii embryos; dilution factor 17.0467): 28.4871% and 30.5605% | Normal development (%) (P. dumerilii embryos; dilution factor 17.9937): 62.9083% and 58.6107% | Normal development (%) (P. dumerilii embryos; dilution factor 19.0522): 71.0249% and 62.3085% | Normal development (%) (P. dumerilii embryos; dilution factor 21.5924): 85.4546% and 82.7272%

Oc1ccc(Cl)cc1Cl [2,4-DCPh, 2,4-Dichlorophenol]
log reduction at 475 µg/mL (E. coli (ATCC 25922); pH 6.2, read-out: Log (N/N0), E. coli, pH 6.2): 3.02 | EC (3-log inactivation) (E. coli (ATCC 25922); pH 7.2, read-out: Dose for achieving 3-log inactivation of E. coli): 472 µg/mL | log reduction at 475 µg/mL (E. coli (ATCC 25922); pH 7.2, read-out: Log (N/N0), E. coli, pH 7.2): 3.32 | log reduction at 475 µg/mL (E. coli (ATCC 25922); pH 8.2, read-out: Log (N/N0), E. coli, pH 8.2): 3.29 | E. coli inactivation rate constant k (E. coli (ATCC 25922); pH 7.2, contact time 5 min): 0.30 L mg‒1 h‒1 | log reduction at 300 µg/mL (S. aureus (ATCC 25923); pH 7.2, read-out: Log (N/N0), S. aureus): 0.626 | Ln (C/C0) ([1]; 0 h): 0 | Ln (C/C0) ([1]; 24 h): 0.008094 and 0.006005 | Ln (C/C0) ([1]; 48 h): 0.007156 and 0.006397 | Normal development (%) (P. dumerilii embryos; dilution factor 9.6524): 0% | Normal development (%) (P. dumerilii embryos; dilution factor 13.1623): 7.691% and 7.509% | Normal development (%) (P. dumerilii embryos; dilution factor 16.0873): 35.5728% and 39.4272% | Normal development (%) (P. dumerilii embryos; dilution factor 20.6836): 55.5625% and 48.4375% | Normal development (%) (P. dumerilii embryos; dilution factor 28.9571): 80.2893% and 76.7107% | Normal development (%) (P. dumerilii embryos; dilution factor 57.9141): 81.6957% and 84.3043%
